Laboratory results published in article PMC11507523, “Development of Malate Biosensor-Containing Hydrogels and Living Cell-Based Sensors” (International Journal of Molecular Sciences, 2024).

Biological target: T1, CitT (Escherichia coli, UniProt P0AE74)
T1 construct: CitT co-expressed with Malon in E. coli BL21 cells
T1 sequence (P0AE74 1-487): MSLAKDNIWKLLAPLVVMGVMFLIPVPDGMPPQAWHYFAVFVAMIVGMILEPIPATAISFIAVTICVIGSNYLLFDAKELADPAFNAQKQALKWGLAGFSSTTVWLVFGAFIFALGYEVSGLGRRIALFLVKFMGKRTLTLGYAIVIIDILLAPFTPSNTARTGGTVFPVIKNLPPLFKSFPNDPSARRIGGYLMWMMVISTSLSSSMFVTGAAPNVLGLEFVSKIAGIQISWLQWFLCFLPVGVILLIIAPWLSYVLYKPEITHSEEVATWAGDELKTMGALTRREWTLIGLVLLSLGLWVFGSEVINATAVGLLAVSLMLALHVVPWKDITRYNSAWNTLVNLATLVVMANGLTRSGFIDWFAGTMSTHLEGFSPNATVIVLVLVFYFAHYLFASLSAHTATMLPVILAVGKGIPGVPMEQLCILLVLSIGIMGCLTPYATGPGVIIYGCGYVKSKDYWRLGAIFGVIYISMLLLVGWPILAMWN
Assay: CitT-dependent malate uptake in E. coli, Malon fluorescence by flow cytometry
Format: cell-based

## O=C(O)C[C@H](O)C(=O)O [malate]
  CitT-dependent malate uptake in E. coli, Malon fluorescence by flow cytometry: Without the CitT transporter, little to no change in fluorescence was observed upon addition of malate
